According to patent US20110172416A1, “AMIDINE DERIVATIVE” (Ajinomoto Co., Inc., priority 2008, published 2011):

Tests used:
[1] = biological target: activated factor IIa (thrombin) (Homo sapiens, UniProt P00734); assay: Measurement of activated factor II (FIIa, thrombin)-inhibitory activity (chromogenic substrate S-2238); format: biochemical; conditions: negative logarithmic value of concentration suppressing reaction rate of control to 50%
Experimental: (§1) Using a 96 well plate (#3396, Costar), Tris-HCl buffer (100 mM, 130 μL) containing 0.02% Tween 20, 0.1% PEG6000 and 0.2 M NaCl was blended with activated factor IIa (thrombin, 0.125 U/mL, 10 μL) and a test compound (10 μL) for 10 min, and a chromogenic substrate (0.1 mM, S-2238, 50 μL) was added. Using microplate reader Benchmark Plus (BIO-RAD), the reaction rate was measured from the time course changes of absorbance at 405 nm. The reaction rate of the control was taken as 100%, and a negative logarithmic value of a concentration at which the reaction rate of the control could be suppressed to 50% was taken as the pIC50 value. The results are shown by pIC50 (IIa) in Table 2.

human plasma = assay: Measurement of anti-blood coagulant activity (aPTT measurement method); format: biochemical; conditions: negative logarithmic value of concentration at which aPTT of the control was double-extended
Experimental: The test was performed according to an aPTT measurement method using a fully-automated blood coagulation time measuring apparatus Sysmex CA-1500. In a sample tube (MS-18, Japan Medical Science) were placed DDVP solution (10 mg/ml, DDVP standard product, Wako Corporation, 4 μL), a solution (20 μL) of a test compound, and human plasma (human plasma for blood coagulation test, GCH-100A, Sysmex Corporation, 180 μL) and this was used as a test sample. The test sample (50 μL) was incubated at 37° C. for 1 min, APTT (cephalin derived from rabbit brain, DADE Behiring, 50 μL) was added, and the mixture was further incubated at 37° C. for 2 min. To the sample solution was added calcium chloride (0.02 M, 50 μL), and the time before coagulation of the plasma was automatically measured.
The anti-blood coagulation activity was shown by the negative logarithmic value of a concentration at which aPTT of the control was double-extended as paPTT2.

FXa = FXa (Homo sapiens, UniProt P00742); assay: Measurement of activated factor X activity-inhibitory activity (chromogenic substrate S-2222); format: biochemical; conditions: negative logarithmic value of concentration suppressing reaction rate of control to 50%
Experimental: as §1, with “with FXa (0.015 U/ml,” for “with activated factor IIa (thrombin, 0.125 U/mL,”, “substrate (0.2” for “substrate (0.1”, “mM, S-2222,” for “mM, S-2238,”, “changes in the” for “changes of”, “pIC50 (FXa)” for “pIC50 (IIa)”

[2] = Evaluation of stability in plasma; format: in vitro ADME; conditions: human plasma, 37° C., calculated from quantitative lower limit at 2 min when below quantification limit
Experimental: To human plasma (495 μL) was added a solution (5 μL) of the test compound prepared to 100 μg/mL (final drug solution concentration 1 μg/mL), and the mixture was incubated at 37° C. At 0 min, 2 min, 5 min, 10 min, 30 min and 60 min after the addition of the drug solution, 50 μL each was sampled. Acetonitrile (100 μL) was added and the mixture was admixed to discontinue the reaction. After discontinuation of the reaction, a protein elimination treatment was performed by centrifugation (15000 rpm, 5 min). The centrifugation supernatant (20 μL) was diluted with ammonium formate solution (100 mmol/L, pH 4, 180 μL), and subjected to the measurement by LC/MS/MS.
When the value at 2 min after the addition of the drug solution was less than the quantification limit, the half-life was calculated by the following method.
That is, the value at 0 min was taken as the theoretical concentration (1000 ng/mL) and the value at 2 min was taken as the quantitative lower limit concentration. The half-life (T1/2) was calculated from the inclination of the straight line connecting the logarithmic conversion values at the two points.

FXa, sequence (P00742 235-488 limits assumed): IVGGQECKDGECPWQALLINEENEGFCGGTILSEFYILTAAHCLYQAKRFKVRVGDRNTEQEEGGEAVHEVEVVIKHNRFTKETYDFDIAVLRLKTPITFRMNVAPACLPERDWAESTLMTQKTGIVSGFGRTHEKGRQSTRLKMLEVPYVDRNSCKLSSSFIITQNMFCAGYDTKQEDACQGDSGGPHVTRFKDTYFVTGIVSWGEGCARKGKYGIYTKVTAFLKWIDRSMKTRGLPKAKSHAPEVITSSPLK
FXa, sequence (P00742 41-179 partner limits assumed): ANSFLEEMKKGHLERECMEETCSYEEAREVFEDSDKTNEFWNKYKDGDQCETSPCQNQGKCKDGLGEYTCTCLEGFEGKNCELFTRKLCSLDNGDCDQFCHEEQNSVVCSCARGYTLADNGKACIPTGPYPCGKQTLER

Compound | IC50 [1] [µM] | paPTT2 (human plasma) | IC50 (FXa) [µM] | half-life at 1 μg/mL [2] [s]
CC(=N)N1CCC(Oc2ccc(COC(=O)c3ccc4c(c3)CN(C(=N)N)CC4)cc2)CC1 [compound of Ex. 15, 4-{[1-(1-iminoethyl)piperidin-4-yl]oxy}benzyl 2-[amino(imino)methyl]-1,2,3,4-tetrahydroisoquinoline-7-carboxylate ditrifluoroacetate] | > 100 | 4.4 | 10 | –
N=C(N)N1Cc2ccc(C(=O)OCC3CCN(c4ccncc4)CC3)cc2C1 [compound of Ex. 7, [1-(pyridin-4-yl)piperidin-4-yl]methyl 2-[amino(imino)methyl]isoindoline-5-carboxylate ditrifluoroacetate] | > 100 | 4.6 | 7.94 | –
COCC1(C(=O)Oc2ccc3c(c2)CN(C(=N)N)CC3)CCN(c2ccncc2)CC1 [compound of Ex. 6, 2-[amino(imino)methyl]-1,2,3,4-tetrahydroisoquinolin-7-yl 4-methoxymethyl-1-(pyridin-4-yl)piperidine-4-carboxylate ditrifluoroacetate] | 39.8 | 5.4 | 1.58 | –
N=C(N)N1CCc2ccc(COC(=O)C3CCN(c4ccncc4)CC3)cc2C1 [compound of Ex. 3, {2-[amino(imino)methyl]-1,2,3,4-tetrahydroisoquinolin-7-yl}methyl 1-(pyridin-4-yl)piperidine-4-carboxylate ditrifluoroacetate] | 63.1 | 6.1 | 0.0794 | < 23.9
N=C(N)N1CCc2ccc(OC(=O)C3(COCc4ccccc4)CCN(c4ccncc4)CC3)cc2C1 [compound of Ex. 5, 2-[amino(imino)methyl]-1,2,3,4-tetrahydroisoquinolin-7-yl 4-[(benzyloxy)methyl]-1-(pyridin-4-yl)piperidine-4-carboxylate ditrifluoroacetate] | 20 | 5.4 | 0.501 | –
N=C(N)N1Cc2ccc(COC(=O)C3CCN(c4ccncc4)CC3)cc2C1 [compound of Ex. 8, {2-[amino(imino)methyl]-isoindolin-5-yl}methyl 1-(pyridin-4-yl)piperidine-4-carboxylate ditrifluoroacetate] | > 100 | <5 | 3.16 | –
CC(=N)N1CCC(Oc2ccc(C(=O)OCc3ccc4c(c3)CN(C(=N)N)CC4)cc2)CC1 [compound of Ex. 16, {2-[amino(imino)methyl]-1,2,3,4-tetrahydroisoquinolin-7-yl}methyl 4-{([1-(1-iminoethyl)piperidin-4-yl]oxy}benzoate ditrifluoroacetate] | > 100 | 4.5 | 5.01 | –
N=C(N)N1CCc2ccc(C(=O)OCC3CCN(c4ccncc4)CC3)cc2C1 [compound of Ex. 2, [1-(pyridin-4-yl)piperidin-4-yl]methyl 2-[amino(imino)methyl]-1,2,3,4-tetrahydroisoquinoline-7-carboxylate ditrifluoroacetate] | > 100 | 5.4 | 0.398 | < 23.7
